Measured values from US20050070510A1, “Substituted tetracycline compounds as synergistic antifungal agents” (Paratek Pharmaceuticals, Inc., priority 2001, published 2005).

The compounds below were run on COS-1 cells (assay: In vitro mammalian cytotoxicity assay (Resazurin)).

SMILES | In Vitro Cytotoxicity
CN(C)[C@@H]1C(O)=C(C(N)=O)C(=O)[C@@]2(C#N)C(O)=C3C(=O)c4c(ccc(-c5cc6ccccc6[nH]5)c4O)[C@H](N)[C@@]3(N)[C@H]([S+](N)[O-])[C@@]12N (stereo partly drawn) [BT] | ** (toxicities less than 25 μg/mL are represented by **)
CN(C)c1cc(CNC(=O)NCC(Cl)(Cl)Cl)c(O)c2c1C[C@@]1(N)C[C@@]3(N)[C@H](N(C)C)C(O)=C(C(N)=O)C(=O)[C@@]3(C#N)C(O)=C1C2=O [MX] | ** (toxicities less than 25 μg/mL are represented by **)
CN(C)[C@@H]1C(O)=C(C(N)=O)C(=O)[C@@]2(C#N)C(O)=C3C(=O)c4c(O)cccc4/C(=C\c4ccc5ccccc5c4)[C@@]3(N)[C@H](O)[C@@]12N [DQ] | ** (toxicities less than 25 μg/mL are represented by **)
CN(C)[C@@H]1C(O)=C(C(N)=O)C(=O)[C@@]2(C#N)C(O)=C3C(=O)c4c(O)ccc(-c5cccc(C(N)=O)c5)c4C[C@@]3(N)C[C@@]12N [IS] | * (toxicities greater than >25 μg/ml are represented by *)
CN(C)c1cc(CNCc2cccn2C)c(O)c2c1C[C@@]1(N)C[C@@]3(N)[C@H](N(C)C)C(O)=C(C(N)=O)C(=O)[C@@]3(C#N)C(O)=C1C2=O [SK] | * (toxicities greater than >25 μg/ml are represented by *)
CN(C)c1ccc(-c2ccc3c(c2O)C(=O)C2=C(O)[C@]4(C#N)C(=O)C(C(N)=O)=C(O)[C@@H](N(C)C)[C@]4(N)[C@@H](O)[C@]2(N)[C@H]3O)cc1 [OY] | ** (toxicities less than 25 μg/mL are represented by **)
CN(C)[C@@H]1C(O)=C(C(N)=O)C(=O)[C@@]2(C#N)C(O)=C3C(=O)c4c(O)ccc(-c5cccnc5)c4C[C@@]3(N)C[C@@]12N [UL] | ** (toxicities less than 25 μg/mL are represented by **)
CN(C)[C@@H]1C(O)=C(C(N)=O)C(=O)[C@@]2(C#N)C(O)=C3C(=O)c4c(O)c(CN)cc(-c5cccc([N+](=O)O)c5)c4C[C@@]3(N)C[C@@]12N [KB] | ** (toxicities less than 25 μg/mL are represented by **)
CN(C)[C@@H]1C(O)=C(C(N)=O)C(=O)[C@@]2(C#N)C(O)=C3C(=O)c4c(O)c(C(C)(C)C)cc(I)c4C[C@@]3(N)C[C@@]12N [NR] | ** (toxicities less than 25 μg/mL are represented by **)
CN(C)[C@@H]1C(O)=C(C(N)=O)C(=O)[C@@]2(C#N)C(O)=C3C(=O)c4c(O)ccc(-c5ccco5)c4C[C@@]3(N)C[C@@]12N [GO] | ** (toxicities less than 25 μg/mL are represented by **)
CN(C)[C@@H]1C(O)=C(C(N)=O)C(=O)[C@@]2(C#N)C(O)=C3C(=O)c4c(O)c(C(C)(C)C)cc(CCC(=O)c5cccnc5)c4C[C@@]3(N)C[C@@]12N [ID] | * (toxicities greater than >25 μg/ml are represented by *)
CC(C)c1cccc(-c2ccc(O)c3c2C[C@@]2(N)C[C@@]4(N)[C@H](N(C)C)C(O)=C(C(N)=O)C(=O)[C@@]4(C#N)C(O)=C2C3=O)c1 [OI] | ** (toxicities less than 25 μg/mL are represented by **)
CC(=O)c1ccc(O)c2c1[C@H](N)[C@]1(N)C(=C(O)[C@]3(C#N)C(=O)C(C(N)=O)=C(O)[C@@H](N(C)C)[C@]3(N)[C@H]1O)C2=O [CR] | ** (toxicities less than 25 μg/mL are represented by **)
CN(C)[C@@H]1C(O)=C(C(N)=O)C(=O)[C@@]2(C#N)C(O)=C3C(=O)c4c(O)ccc(I)c4[C@H](N)[C@@]3(N)[C@H](OC(=O)C3CCCCC3)[C@@]12N [CV] | ** (toxicities less than 25 μg/mL are represented by **)
CN(C)[C@@H]1C(O)=C(C(N)=O)C(=O)[C@@]2(C#N)C(O)=C3C(=O)c4c(ccc(NC(=O)OCCBr)c4O)[C@H](N)[C@@]3(N)[C@H](O)[C@@]12N [DD] | ** (toxicities less than 25 μg/mL are represented by **)
COc1ccc(-c2ccc(O)c3c2C[C@@]2(N)C[C@@]4(N)[C@H](N(C)C)C(O)=C(C(N)=O)C(=O)[C@@]4(C#N)C(O)=C2C3=O)cc1CN [QD] | * (toxicities greater than >25 μg/ml are represented by *)
CC(=O)OCC(=O)Nc1ccc(-c2ccc(O)c3c2C[C@@]2(N)C[C@@]4(N)[C@H](N(C)C)C(O)=C(C(N)=O)C(=O)[C@@]4(C#N)C(O)=C2C3=O)cc1 [UR] | ** (toxicities less than 25 μg/mL are represented by **)
CN(C)[C@@H]1C(O)=C(C(N)=O)C(=O)[C@@]2(C#N)C(O)=C3C(=O)c4c(O)ccc(C#Cc5c(F)c(F)c(F)c(F)c5F)c4C[C@@]3(N)C[C@@]12N [FK] | ** (toxicities less than 25 μg/mL are represented by **)
CN(C)[C@@H]1C(O)=C(C(N)=O)C(=O)[C@@]2(C#N)C(O)=C3C(=O)c4c(O)cccc4C(N)[C@@]3(N)[C@H](OC(=O)CNC(=O)OC(C)(C)C)[C@@]12N (stereo partly drawn) [AU] | ** (toxicities less than 25 μg/mL are represented by **)
CC(O)CCc1ccc(O)c2c1C[C@@]1(N)C[C@@]3(N)[C@H](N(C)C)C(O)=C(C(N)=O)C(=O)[C@@]3(C#N)C(O)=C1C2=O (stereo partly drawn) [IW] | * (toxicities greater than >25 μg/ml are represented by *)
Cc1cccnc1-c1ccc(O)c2c1C[C@@]1(N)C[C@@]3(N)[C@H](N(C)C)C(O)=C(C(N)=O)C(=O)[C@@]3(C#N)C(O)=C1C2=O [UW] | * (toxicities greater than >25 μg/ml are represented by *)

SMILES | In Vitro Cytotoxicity
CN(C)[C@@H]1C(O)=C(C(N)=O)C(=O)[C@@]2(C#N)C(O)=C3C(=O)c4c(O)ccc(NS(C)(=O)=O)c4C[C@@]3(N)C[C@@]12N [RZ] | * (toxicities greater than >25 μg/ml are represented by *)
CN(C)C1C(O)=C(C(N)=O)C(=O)[C@@]2(C#N)C(O)=C3C(=O)c4c(O)ccc(-c5ccc(NC(=O)c6ccno6)cc5)c4C[C@@]3(N)C[C@@]12N (stereo partly drawn) [RH] | * (toxicities greater than >25 μg/ml are represented by *)
CCCCCC(=O)c1ccc(O)c2c1C[C@@]1(N)C[C@@]3(N)[C@H](N(C)C)C(O)=C(C(N)=O)C(=O)[C@@]3(C#N)C(O)=C1C2=O [MO] | ** (toxicities less than 25 μg/mL are represented by **)
CN(C)[C@@H]1C(O)=C(C(N)=O)C(=O)[C@@]2(C#N)C(O)=C3C(=O)c4c(O)cccc4[C@H](N)[C@@]3(N)[C@H](OC(=O)Nc3ccc(O)cc3[N+](=O)O)[C@@]12N [BN] | * (toxicities greater than >25 μg/ml are represented by *)
CCCCCCOC(=O)NCc1cc(N(C)C)c2c(c1O)C(=O)C1=C(O)[C@]3(C#N)C(=O)C(C(N)=O)=C(O)[C@@H](N(C)C)[C@]3(N)C[C@]1(N)C2 [MS] | ** (toxicities less than 25 μg/mL are represented by **)
CN(C)[C@@H]1C(O)=C(C(N)=O)C(=O)[C@@]2(C#N)C(O)=C3C(=O)c4c(ccc(NC(=O)Nc5cccc6ccccc56)c4O)[C@H](N)[C@@]3(N)[C@H](OC(=O)Nc3ccccc3)[C@@]12N [BJ] | ** (toxicities less than 25 μg/mL are represented by **)
COc1ccc(C(=O)Nc2ccc(-c3ccc(O)c4c3C[C@@]3(N)C[C@@]5(N)C(N(C)C)C(O)=C(C(N)=O)C(=O)[C@@]5(C#N)C(O)=C3C4=O)cc2)cc1 (stereo partly drawn) [QR] | ** (toxicities less than 25 μg/mL are represented by **)
CN(C)[C@@H]1C(O)=C(C(N)=O)C(=O)[C@@]2(C#N)C(O)=C3C(=O)c4c(O)ccc(-c5cnccn5)c4C[C@@]3(N)C[C@@]12N [UX] | * (toxicities greater than >25 μg/ml are represented by *)
Cc1ccc(CCc2ccc(O)c3c2CC2CC4[C@H](N(C)C)C(O)=C(C(N)=O)C(=O)[C@@]4(O)C(O)=C2C3=O)cc1 (stereo partly drawn) [Compound HG] | ** (toxicities less than 25 μg/mL are represented by **)
COc1cc(-c2ccc(O)c3c2C[C@@]2(N)C[C@@]4(N)[C@H](N(C)C)C(O)=C(C(N)=O)C(=O)[C@@]4(C#N)C(O)=C2C3=O)cc(OC)c1OC [OK] | ** (toxicities less than 25 μg/mL are represented by **)
CN(C)[C@@H]1C(O)=C(C(N)=O)C(=O)[C@@]2(C#N)C(O)=C3C(=O)c4c(ccc(NC5CCN(Cc6ccccc6)CC5)c4O)C[C@@]3(N)C[C@@]12N [SJ] | * (toxicities greater than >25 μg/ml are represented by *)
CN(C)[C@@H]1C(O)=C(C(N)=O)C(=O)[C@@]2(C#N)C(O)=C3C(=O)c4c(O)ccc(-c5ccncc5)c4C[C@@]3(N)C[C@@]12N [UN] | ** (toxicities less than 25 μg/mL are represented by **)
CN(C)c1cc(NC(=O)Nc2ccccc2)c(O)c2c1C[C@@]1(N)C[C@@]3(N)[C@H](N(C)C)C(O)=C(C(N)=O)C(=O)[C@@]3(C#N)C(O)=C1C2=O [IB] | * (toxicities greater than >25 μg/ml are represented by *)
CN(C)[C@@H]1C(O)=C(C(N)=O)C(=O)[C@@]2(C#N)C(O)=C3C(=O)c4c(O)ccc(CCc5ccccc5)c4C[C@@]3(N)C[C@@]12N [IN] | ** (toxicities less than 25 μg/mL are represented by **)
CN(C)[C@@H]1C(O)=C(C(N)=O)C(=O)[C@@]2(C#N)C(O)=C3C(=O)c4c(O)c(CN)cc(-c5ccccc5)c4C[C@@]3(N)C[C@@]12N [RO] | * (toxicities greater than >25 μg/ml are represented by *)
CCOc1ccccc1-c1ccc(O)c2c1C[C@@]1(N)C[C@@]3(N)[C@H](N(C)C)C(O)=C(C(N)=O)C(=O)[C@@]3(C#N)C(O)=C1C2=O [ER] | ** (toxicities less than 25 μg/mL are represented by **)
CCOC(=O)CNCc1ccc(-c2ccc(O)c3c2C[C@@]2(N)C[C@@]4(N)[C@H](N(C)C)C(O)=C(C(N)=O)C(=O)[C@@]4(C#N)C(O)=C2C3=O)cc1 [OS] | ** (toxicities less than 25 μg/mL are represented by **)
CN(C)[C@@H]1C(O)=C(C(N)=O)C(=O)[C@@]2(C#N)C(O)=C3C(=O)c4c(O)ccc(C=C5CCC5)c4C[C@@]3(N)C[C@@]12N [FS] | ** (toxicities less than 25 μg/mL are represented by **)
CN(C)[C@@H]1C(O)=C(C(N)=O)C(=O)[C@@]2(C#N)C(O)=C3C(=O)c4c(O)ccc(-c5ccc(C(C)(C)C)cc5)c4C[C@@]3(N)C[C@@]12N [QH] | ** (toxicities less than 25 μg/mL are represented by **)
CN(C)c1ccc(-c2cc(F)c(O)c3c2C[C@@]2(N)C[C@@]4(N)[C@H](N(C)C)C(O)=C(C(N)=O)C(=O)[C@@]4(C#N)C(O)=C2C3=O)cc1 [OX] | ** (toxicities less than 25 μg/mL are represented by **)
COCCOC(=O)NCc1cc(N(C)C)c2c(c1O)C(=O)C1=C(O)[C@]3(C#N)C(=O)C(C(N)=O)=C(O)[C@@H](N(C)C)[C@]3(N)C[C@]1(N)C2 [MT] | * (toxicities greater than >25 μg/ml are represented by *)
